Measured values published in patent publication US6960300B2, “Process for preparing water soluble diterpenes and their applications” (Sami Labs Limited, priority 2003, dated 2005).
Values after ≈ are worked out from the molar mass of the structure shown.

How the values were obtained:
[1] = polyvinylpyrrolidone and polyethyleneglycol-glyceryl tririicinoleate, U.S. Pat. No. 6,346,273; cited from earlier work
[2] = test system: Intraocular pressure (IOP), ocular hypertension; experiment: Anti-glaucoma activity: intraocular pressure (IOP) in rabbits with betamethasone-induced ocular hypertension, non-contact tonometer; assay type: in vivo, Albino rabbit (New Zealand strain); details: for IOP Readings, right eye (treated): average of 6 determinations
Description: An illustrative example of the biological activity of the preparation is presented. The anti-glaucoma activity of the forskolin composition was studied in albino rabbits. A 1% solution of Forskolin in water as described in example 8 was used for the experiments
Study design: Animal model: Albino rabbit Number of groups: 4 Number of animals in each group: 6 in treatment group and 2 in control group
Materials and methods: Six albino rabbits of New Zealand strain, of both sexes, weighing […] were chosen. The rabbits were housed in clean and well-ventilated open space. Each rabbit was fed with standard diet daily and water was administered ad libitum throughout the study.
Ocular hypertension was induced by the method reported by Bonomi et al (Invest Ophthalmol. 1976 September; 15(9):781-4.) The rabbits were given 0.3 ml subconjunctival injection of Betnesol containing betamethasone sodium 4 mg/ml, every day to each eye for a period of three weeks (the Intraocular pressure (IOP) at third week was maximum as per literature). Local anesthetic propracaine eye drops were used prior to subconjunctival injections.
In each rabbit the left eye was kept as control for glaucoma and the right eye was treated for glaucoma using Forskolin, Timolol, and the placebo.
For each treatment, the IOP readings were measured at intervals of 30 minutes up to 210 minutes using the non-contact tonometer (NCT).

[3] = Determination of the aqueous solubility of Forskolin (intrinsic solubility, HPLC); assay type: physicochemical
Experimental: Determination of the aqueous solubility of Forskolin. Forskolin (300 mg) was dried at 105° C. for 6 hours. Dried Forskolin 200 mg was stirred with 100 ml water for 48 hours for the determination of intrinsic solubility at ambient temperatureResulting solution was filtered through 0.45 μm nylon filter and analyzed for the content of Forskolin by HPLC.

[4] = Solubility of Forskolin / Isoforskolin in water containing cyclodextrin (HPLC of filtered solution); assay type: physicochemical
Experimental: To solubilize Forskolin using cyclodextrins, the chosen cyclodextrin and Forskolin are mixed in water in specific proportions. The aqueous solution is filtered to remove any undissoved particles to obtain a clear aqueous solution of Forskolin in water.
Forskolin (98.5% assay, 25 mg) was added to 1 ml water containing in the dissolved state 500 mg Hydroxy propyl β cyclodextrin, HPBCD, (˜50%) Suspension was agitated at 75 RPM in an isothermal shaker for 60 hours at temperature ˜30° C.
Forskolin (98.5% assay, 50 mg) was added to 1 ml water containing 500 mg Hydroxy propyl γ-cyclodextrin in the dissolved state. (HPGCD) (˜50%). Suspension was agitated at 75 RPM in an isothermal shaker for 60 hours at temperature ˜30° C.
Experiments were performed by “changing” the crystallinity of Forskolin by recrystallizing from methylene chloride and from ethyl acetate. Resulting “amorphous” Forskolin was used for complexation with Hydroxyropyl γ-cyclodextrin HPGCD. Forskolin (29.3 mg) recrystallized with methylene dichloride (Forskolin assay 99.0%) was added to 3 ml water containing 1.5 gram Hydroxy propyl γ-cyclodextrin, HPGCD (˜50%). Suspension was agitated at 75 RPM in an isothermal shaker for 160 hour at temperature 30° C.
Forskolin (30.3 mg) recrystallized with ethyl acetate (Forskolin assay 98.8%) was added to 3 ml water containing 1.5 gram Hydroxy propyl γ-cyclodextrin, HPGCD (˜50%). Suspension was agitated at 75 RPM in an isothermal shaker for 160 hour at temperature 30° C.
Forskolin (98.5% assay, 330 mg) was added to 10 ml water containing 4 g of RAMEBCD (˜40%). Suspension was agitated at 75 RPM in an isothermal shaker for 40 hours at temperature 30° C.
Solubility of Forskolin in water was determined at the different concentrations of RAMEBCD ranging from 5 to 66%.
A typical aqueous formulation of Forskolin with a cyclodextrin is prepared as follows, RAMEBCD, being used as the example of cyclodextrin RAMEBCD (100 g) is taken in a one liter flask with mechanical or magnetic stirring facility. Forskolin (5.5 g) was charged into the flask. Water (400 ml) is charged to the flask and the contents were agitated at room temperature. A clear solution is obtained. If any undissolved Forskolin particles are seen, they are resuspended and stirred. Benzalkonium chloride (50 mg) and Disodium EDTA (500 mg) are added and dissolved in the flask. The pH of the contents could be adjusted to the desired range with the help of 0.1N sodium hydroxide. (usually pH range 3.5 to 7.5). Calculated amount of sodium chloride solution is added to maintain the osmolarity of the solution equivalent to that of 0.9% sodium chloride. The total volume of the solution is made up to 500 ml after sterile filtration. A solution thus prepared has approximately 1% of Forskolin in the dissolved state. Other cyclodextrins also could be used and depending on the cyclodextrin used, the dissolved content of Forskolin in water differed.
Isoforskolin also could be used in place of Forskolin. In one preparation, Isoforskolin (50 mg) was suspended in water containing a suitable amount of a cyclodextrin, for example, R AMEBCD (20 g) in about 100 ml water.

[5] = Dissolution in water of Forskolin-RAMEBCD residue obtained by evaporating acetone; assay type: physicochemical; details: Forskolin 50 mg + RAMEBCD 1 gram from acetone, residue in 5 ml water
Experimental: Alternatively, the cyclodextrin and Forskolin in certain proportions are dissolved in a suitable solvent such as ethanol or acetone or ethyl acetate. The solvent is removed to leave behind a white powder. Such powder freely dissolves in water as the examples will illustrate. Further, additives to the aqueous solution of Forskolin can also be added. These additives are usually used for maintaining sterility, pH maintenance, maintenance of osmolarity etc.
Forskolin (50 mg) was dissolved in 5 ml acetone, and 1 gram of RAMEBCD was dissolved in 5 ml acetone separately. Both the solutions were mixed together and solvent acetone was evaporated under reduced pressure. Residue was dried and dissolved in 5 ml water. This residue dissolved very easily within 1 hour of stirring forming a clear colorless solution.

[6] = 25° C.; cited from earlier work

SMILES | IOP Readings, right eye (treated) ([2]; time 0 mins) | IOP Readings, right eye (treated) ([2]; time 30 mins) | IOP Readings, right eye (treated) ([2]; time 60 mins) | IOP Readings, right eye (treated) ([2]; time 90 mins) | IOP Readings, right eye (treated) ([2]; time 120 mins) | IOP Readings, right eye (treated) ([2]; time 150 mins) | IOP Readings, right eye (treated) ([2]; time 180 mins) | IOP Readings, right eye (treated) ([2]; time 210 mins) | further results
C=C[C@@]1(C)CC(=O)[C@]2(O)[C@@]3(C)[C@@H](O)CCC(C)(C)[C@@H]3[C@H](O)[C@H](OC(C)=O)[C@@]2(C)O1 [Forskolin] | 14 mmHg | 7 mmHg | 6.5 mmHg | 4.5 mmHg | 5 mmHg | 6 mmHg | 7 mmHg | 7.5 mmHg | Maximum solubility of Forskolin achieved [1]: 0.2%; Anti-glaucoma activity (conclusion) ([2]; 1% solution of Forskolin in water as in example 8): anti-glaucoma activity comparable to Timolol; Concentration of Forskolin solution in water in the absence of cyclodextrin ([3]; no cyclodextrin): about 0.001%; Content of Forskolin by HPLC (intrinsic solubility in water) ([3]; stirred 48 hours, ambient temperature, 0.45 μm filtered): 0.001 % w/v; solubility at 48 h ([3]; thermodynamic from solid, water, stirred 48 hours, ambient temperature, 0.45 μm filtered, read-out: Content of Forskolin by HPLC (intrinsic solubility in water)): 10 µg/mL (≈ 24.4 µM); % Forskolin w/v (solubility in water) ([4]; 5% RAMEBCD): 0.09 % w/v; % Forskolin w/v (solubility in water) ([4]; 10% RAMEBCD): 0.272 % w/v; % Forskolin w/v (solubility in water) ([4]; 15% RAMEBCD): 0.767 % w/v; % Forskolin w/v (solubility in water) ([4]; 20% RAMEBCD): 1.15 % w/v; % Forskolin w/v (solubility in water) ([4]; 40% RAMEBCD): 2.746 % w/v; % Forskolin w/v (solubility in water) ([4]; 53.28% RAMEBCD): 4.165 % w/v; % Forskolin w/v (solubility in water) ([4]; 66.6% RAMEBCD): 5.029 % w/v; Forskolin in the dissolved state in the aqueous formulation ([4]; Example 8 formulation: RAMEBCD 100 g, Forskolin 5.5 g, made up to 500 ml, room temperature): approximately 1%; Time of stirring for the residue to dissolve in water forming a clear colorless solution [5]: ≤ 1 h
C=C[C@@]1(C)CC(=O)[C@@]2(O)[C@](C)(O1)[C@@H](O)[C@@H](OC(C)=O)C1C(C)(C)CC[C@H](O)[C@@]12C (some centres unmarked) [Isoforskolin] | – | – | – | – | – | – | – | – | Isoforskolin present in filtered solution by HPLC ([4]; RAMEBCD (20 g) in about 100 ml water, room temperature): approximately 0.5%
CC(C)(C)NC[C@H](O)COc1nsnc1N1CCOCC1 [Timolol] | 13 mmHg | 8 mmHg | 7 mmHg | 5 mmHg | 4 mmHg | 3.5 mmHg | 4.5 mmHg | 6 mmHg | –
OC[C@H]1O[C@@H]2O[C@H]3[C@H](O)[C@@H](O)[C@@H](O[C@H]4[C@H](O)[C@@H](O)[C@@H](O[C@H]5[C@H](O)[C@@H](O)[C@@H](O[C@H]6[C@H](O)[C@@H](O)[C@@H](O[C@H]7[C@H](O)[C@@H](O)[C@@H](O[C@H]8[C@H](O)[C@@H](O)[C@@H](O[C@H]9[C@H](O)[C@@H](O)[C@@H](O[C@H]%10[C@H](O)[C@@H](O)[C@@H](O[C@H]1[C@H](O)[C@H]2O)O[C@@H]%10CO)O[C@@H]9CO)O[C@@H]8CO)O[C@@H]7CO)O[C@@H]6CO)O[C@@H]5CO)O[C@@H]4CO)O[C@@H]3CO [δ-cyclodextrin] | – | – | – | – | – | – | – | – | Water solubility [6]: 8.19 g/100 ml
